Test results taken from PMC9227096, “Design, Synthesis, and In Vitro, In Silico and In Cellulo Evaluation of New Pyrimidine and Pyridine Amide and Carbamate Derivatives as Multi-Functional Cholinesterase Inhibitors” (Pharmaceuticals, 2022).

Tests used:
equine BChE (eqBChE) = target: T1, equine BChE (eqBChE) (Equus caballus, UniProt P81908); assay: Inhibition constant and mechanism vs. eqBChE by Dixon's method; type: biochemical; settings: inhibitor 200-1800 nM, acetylthiocholine 100-300 µM; for Ki: eqBChE, read-out: Ki ± SD
T1 construct: purchased Sigma-Aldrich (Milan, Italy)
Procedure: The recorded data were analysed with the enzyme kinetic module of SigmaPlot in order to find the best fitting model of inhibition, using the linear regression analysis. The reference kinetic models used in the regression analysis were: competitive, non-competitive, uncompetitive and mixed. Each determination was repeated five times and incorrect values were discarded to reduce the standard deviation to within the limit of 5%. In this way, the regression lines obtained have a linear regression coefficient (R^2) higher than 0.98. […] The Dixon’s plots of tested compounds are reported in the Supplementary Materials (Figures S1 and S2).
The constant and the mechanism of inhibition vs. eqBChE were determined for the compounds 12 and 14. For each compound a 500 μM stock solution was prepared in H2O/DMSO and diluted in water to prepare solutions of opportune concentrations (10, 30 and 60 μM) in order to introduce the cuvette volumes ranging from 60 to 100 μL to obtain the desired final concentrations (200–1800 nM). The maximum amount of DMSO used for the preparation of the stock solution was calculated in order to obtain a DMSO content in cuvette of <0.033%.
An amount of 3.0 mL of 0.1 M phosphate buffer (pH = 7.4), containing DTNB (0.25 mM) and eqBChE (0.083 UmL^−1), were mixed with the opportune volume of inhibitor, to obtain, in the cuvette, a final inhibitor concentration between 200 and 1800 nM. With this solution the blank was made. […]. The absorbance variations were measured at 412 nm at 25 °C between 0.5 and 1.5 min.
In order to determine the inhibition constants (Ki) and inhibition mechanism the rates of hydrolysis at three different concentrations of substrate in the presence of five different concentration of inhibitor were measured. The recorded data were analyzed by the enzyme kinetic module of SigmaPlot (version 8.02), plotting the reciprocal of rate of hydrolysis (1/v, min/μM) vs. the concentration of inhibitor (nM), according to Dixon’s method in order to find the best fitting model of inhibition, as indicated by calculated linear regression coefficient R^2.

[1] = Chelation studies: UV-Vis titration and Job's plot; type: physicochemical; settings: for chelating ability on the biometals Fe^3+, Cu^2+ and Zn^2+: UV-Vis spectra in MeOH, ligand/metal ratio 1:3, 1:5 or 1:10
Procedure: Initially, the UV–Vis spectrum of the ligand was recorded and compared with the spectra obtained by adding an excess of metal to the ligand solution, maintaining the same concentration of the ligand (ligand/metal ratio 1:3, 1:5 or 1:10). The variation of the UV–Vis spectrum of the ligand in presence of metal ions is indicative of the formation of the complex. […] As previously supposed, the chelating activity of these compounds is due to the presence of two adjacent nitrogen atoms in the 2-amino-pyridine moiety.
UV–Vis titrations of these compounds were carried out with the metal ions with which they form complexes, recording first the UV–Vis spectrum of the ligand and then the spectra obtained by mixing solutions of ligand and metal according to increasing metal/ligand molar ratios (Figure 7a).
The stoichiometries of metal–ligand complexes were determined through Job’s method.
The mole fraction X, which causes the maximum variation of absorbance, is extracted from the graph and then the value of the coefficient n, which corresponds to the number of ligand molecules per cation, is obtained (Figure 7b). The UV–Vis titrations spectra and the Job’s plots of all tested compound are reported in the Supplementary Materials (Figures S8–S17), while the data extrapolated from Job’s plots are summarized in Table 5.
For the UV–Vis titration, solutions 10^−3 M in MeOH of compounds 12, 14 and 18 were prepared. […]. UV–Vis spectra were recorded from 210 to 450 nm.
For the first measure, 150 µL of ligand solution were diluted in 2.85 mL of MeOH into sample cuvette, while only MeOH was placed in reference cuvette and the UV–Vis spectrum was recorded. For subsequent measurements, 2.85 mL of the opportune metal solution were placed both in a sample cuvette and in a reference cuvette; then 150 µL of ligand solution were added to a sample cuvette, while 150 µL of MeOH were added to the reference cuvette and the UV–Vis spectra were recorded. The spectra thus obtained were superimposed to observe the variations present between the ligand alone and in presence of increasing amount of metal.
To determine the stoichiometric coefficients of the complexes, Job’s method was used, which requires the mixing, in appropriate proportions, of the equimolar solution of metal ion and ligand, so that the final volume and the total moles present in the cuvette are equal for each measurement. The absorbance values were recorded at the wavelengths, extrapolated from the UV–Vis titration spectra, where the maximum variation of absorbance was observed. At the same time two solutions in MeOH of equal concentration were prepared, one of ligand and one of metal ion, diluting the solutions 1 M of CuSO4·5H2O and Zn(NO3)2·6H2O and 0.1 M of FeCl3·6H2O previously prepared. The concentrations of the solutions used and the wavelengths in which the absorbance was recorded were: 2.96·10^−4 M for 12 and Fe^3+–251, 320 nm; 2.83·10^−4 M for 14 and Fe^3+–250, 310 nm; 2.90·10^−4 M for 18 and Fe^3+–245, 310 nm; 6.00·10^−4 M for 18 and Cu^2+–330 nm.
For each determination 9–20 measurements were made, introducing the appropriate volumes of metal and ligand solutions in the sample cuvette to obtain mole fractions of the ligand in the range 0.1–0.9, while appropriate volumes of ligand solution and MeOH were placed in the reference cuvette, to obtain the same concentration of ligand in the sample cuvette. The absorbance values of the metal ion, calculated by the Lambert–Beer relation, known the extinction coefficients ε of the metal ion at used wavelengths and the nominal concentrations of the metal ion for each measure, were algebraically subtracted from the recorded absorbance values, in order to obtain the exclusive absorbance variations due to the complex formation. […]

T1 sequence (P81908 whole entry): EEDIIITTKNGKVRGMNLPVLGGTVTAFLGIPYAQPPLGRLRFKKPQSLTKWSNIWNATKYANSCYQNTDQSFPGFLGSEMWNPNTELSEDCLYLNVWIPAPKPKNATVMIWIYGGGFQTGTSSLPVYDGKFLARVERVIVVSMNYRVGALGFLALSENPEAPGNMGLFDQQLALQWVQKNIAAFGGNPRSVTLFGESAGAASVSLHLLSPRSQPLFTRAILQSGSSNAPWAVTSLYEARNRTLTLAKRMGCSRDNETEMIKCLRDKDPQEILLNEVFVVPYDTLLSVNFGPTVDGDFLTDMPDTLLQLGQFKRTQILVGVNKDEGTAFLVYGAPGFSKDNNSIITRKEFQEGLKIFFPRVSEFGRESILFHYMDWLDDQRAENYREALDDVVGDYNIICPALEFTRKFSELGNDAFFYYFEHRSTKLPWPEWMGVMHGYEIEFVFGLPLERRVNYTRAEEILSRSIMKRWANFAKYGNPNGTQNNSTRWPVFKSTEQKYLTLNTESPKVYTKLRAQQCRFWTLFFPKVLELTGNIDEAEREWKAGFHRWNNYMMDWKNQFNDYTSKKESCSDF

Compound	Ki (equine BChE (eqBChE))	Mechanism of inhibition on eqBChE (equine BChE (eqBChE))	X (mole fraction that causes the maximum variation of absorbance), Fe^3+ ([1]; Job's plot)	n (number of ligand molecules per cation), Fe^3+ ([1]; Job's plot)	chelating ability on the biometals Fe^3+, Cu^2+ and Zn^2+ [1]	X (mole fraction that causes the maximum variation of absorbance), Cu^2+ ([1]; Job's plot, Cu^2+)	n (number of ligand molecules per cation), Cu^2+ ([1]; Job's plot, Cu^2+)
O=C(NCCCCCCNc1ccccn1)c1ccccc1 [Compound 12, N-(6-(pyridin-2-ylamino)hexyl)benzamide]	2990 ± 190 nM	Competitive	0.69	2	ability to chelate Fe^3+ and Cu^2+ ions		
O=C(Cc1ccc(Oc2ccccc2)cc1)NCCCCCCNc1ccccn1 [Compound 14, 2-(4-phenoxyphenyl)-N-(6-(pyridin-2-ylamino)hexyl)acetamide]	621 ± 43 nM	Competitive	0.70	2	ability to chelate Fe^3+ and Cu^2+ ions		
O=C(NCCCCCCNc1ccccn1)Oc1ccccc1 [Compound 18, Phenyl (6-(pyridin-2-ylamino)hexyl)carbamate]			0.69	2	ability to chelate Fe^3+ and Cu^2+ ions	0.49	1
